Results published in patent US20160355483A1, “COMPOUND BINDING TO PPARG BUT NOT ACTING AS PROMOTER AND PHARMACEUTICAL COMPOSITION FOR TREATING PPARG-RELATED DISEASES CONTAINING SAME AS ACTIVE INGREDIENT” (Hyundai Pharm Co., Ltd., priority 2014, published 2016).

Target: T1, PPARG (peroxisome proliferator activated receptor-gamma), GST-PPARG-LBD (Homo sapiens, UniProt P37231)
T1 construct: 15 μL of 5 nM GST-PPARG-LBD and 5 nM Tb-GST-antibody were added; purchased Invitrogen PV4894
T1 sequence (P37231 238-503 limits assumed): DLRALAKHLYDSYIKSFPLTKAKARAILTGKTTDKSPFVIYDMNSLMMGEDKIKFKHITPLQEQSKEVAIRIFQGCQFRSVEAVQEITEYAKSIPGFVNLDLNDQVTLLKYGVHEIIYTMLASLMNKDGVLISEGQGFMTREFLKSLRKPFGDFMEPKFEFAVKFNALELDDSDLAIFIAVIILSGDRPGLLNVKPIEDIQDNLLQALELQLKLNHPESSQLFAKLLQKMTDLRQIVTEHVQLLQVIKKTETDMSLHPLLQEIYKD
Assay: LanthaScreen TR-FRET PPARG Competitive Binding Assay
Parameters: key: “+” indicates the degree of the binding activity, and as the number of “+” increases, the binding activity is stronger; ++: “+” indicates the degree of the binding activity, and as the number of “+” increases, the binding activity is stronger; +++: “+” indicates the degree of the binding activity, and as the number of “+” increases, the binding activity is stronger; ++++: “+” indicates the degree of the binding activity, and as the number of “+” increases, the binding activity is stronger
Conditions: degree of binding activity
Procedure: The following experiment was performed to evaluate the PPARG (peroxisome proliferator activated receptor-gamma) binding capacity and transcriptional activity of the compounds prepared in the examples of the invention. For the experiment, LanthaScreen™ TR-FRET PPARG Competitive Binding Assay Kit (PV4894, Invitrogen) was used according to the manufacturer's instruction. […] The mixture was loaded in a 384-well plate (Greiner, 784075) by 20 μL per well, followed by reaction at room temperature for 1 hour. Upon completion of the reaction, fluorescence value was measured by using Flexstation 3 (Molecular Devices) with time-resolved fluorescence (RFU) mode (excitation 1: 340 nm, emission 1: 518 nm, excitation 2: 340 nm, emission 2: 488 nm, integration delay 50 μs, integration 400 μs). The results were calculated by using 518 nm RFUs/488 nm RFUs ratio. The activity of the compounds of the invention was compared with that of the vehicle, which was calculated by ratio according to the formula [100%−compound of the example ratio/vehicle ratio]. At this time, the binding activity ratio to rosiglitazone was compared.

For `O=C(NCc1ccncc1)c1ccc2c(c1)OCCN2Cc1ccc(-c2ccccc2C(=O)O)cc1` [Example 90, 4′-((7-((pyridine-4-ylmethyl)carbamoyl)-2H-benzo[b][1,4]oxazine-4(3H)-yl)methyl)-[1,1′-biphenyl]-2-carboxylic acid], which “Binding assay (1 μLM)” value is on record?
Its value is “+”.

How did the “Binding assay (1 μLM)” value turn out when `O=C(NCc1ccc2c(c1)OCCO2)c1ccc2c(c1)OCCN2Cc1ccc(-c2ccccc2C(=O)O)cc1` [Example 93, 4′-((7-(((2,3-dihydrobenzo[b][1,4]dioxin-6-yl)methyl)carbamoyl)-2H-benzo[b][1,4]oxazine-4(3H)-yl)methyl)-[1,1′-biphenyl]-2-carboxylic acid] was run?
The value was “++”.

For `NC(=O)c1ccccc1-c1ccc(CN2CCCc3cc(C(=O)NCc4ccccc4)ccc32)cc1` [Example 50, N-benzyl-1-((2′-carbamoyl-[1,1′-biphenyl]-4-yl)methyl)-1,2,3,4-tetrahydroquinoline-6-carboxamide], which “Binding assay (1 μLM)” value is on record?
The value was “+++”.

For `C[C@H](NC(=O)c1ccc2c(c1)OCCN2Cc1ccc(-c2ccccc2C(N)=O)cc1)c1ccccc1` [Example 59, (S)-4-((2′-carbamoyl-[1,1′-biphenyl]-4-yl)methyl)-N-(1-phenylethyl)-3,4-dihydro-2H-benzo[b][1, 4]oxazine-7-carboxamide], which “Binding assay (1 μLM)” value is on record?
Its value is “++”.

Which “Binding assay (1 μLM)” value does the source give for `C[C@H](NC(=O)c1ccc2c(c1)OCCN2Cc1ccc(-c2ccccc2C(=O)O)cc1)c1cccc(Cl)c1` [Example 65, (S)-4′-((7-((1-(3-chlorophenyl)ethyl)carbamoyl)-2H-benzo[b][1,4]oxazine-4(3H)-yl)methyl)-[1,1′-biphenyl]-2-carboxylic acid] here?
The value was “++”.

With `C[C@H](NC(=O)c1ccc2c(c1)CCCN2Cc1ccc(-c2ccccc2C(=O)O)cc1)c1ccc(F)c(F)c1` [Example 21, (S)-4′-((6-((1-(3,4-fluorophenyl)ethyl)carbamoyl)-3,4-dihydroquinoline-1 (2H)-yl)methyl)-[1,1′-biphenyl]-2-carboxylic acid] as the molecule, how does the “Binding assay (1 μLM)” value read?
Its value is “+++”.

How did the “Binding assay (1 μLM)” value turn out when `C[C@H](NC(=O)c1ccc2c(c1)CCCN2Cc1ccc(-c2ccccc2C(N)=O)cc1)c1ccccc1C(F)(F)F` [Example 43, (S)-1-((2′-carbamoyl-[1,1′-biphenyl]-4-yl)methyl)-N-(1-(2-(trifluoromethyl)phenyl)ethyl)-1,2,3,4-tetrahydroquinoline-6-carboxamide] was run?
The value was “++”.

With `COC(=O)c1ccc(CNC(=O)c2ccc3c(c2)OCCN3Cc2ccc(-c3ccccc3C(=O)O)cc2)cc1` [Example 71, 4′-((7-((4-(methoxycarbonyl)benzyl)carbamoyl)-2H-benzo[b][1,4]oxazine-4(3H)-yl)methyl)-[1,1′-biphenyl]-2-carboxylic acid] as the molecule, how does the “Binding assay (1 μLM)” value read?
Its value is “+”.

`C[C@H](NC(=O)c1ccc2c(c1)CCCN2Cc1ccccc1-c1ccc(C(N)=O)cc1)c1ccccc1` [Example 153, (S)-1-((4′-carbamoyl-[1,1′-biphenyl]-2-yl)methyl)-N-(1-phenylethyl)-1,2,3,4-tetrahydroquinolin-6-carboxamide] was tested. Which “Binding assay (1 μLM)” value did it give?
Its value is “++”.

For `C[C@H](NC(=O)c1ccc2c(c1)CCCN2Cc1ccc(-c2ccccc2C(=O)O)cc1)c1ccc(C(F)(F)F)cc1` [Example 12, (S)-4′-((6-((1-(4-(trifluoromethyl)phenyl)ethyl)carbamoyl)-3,4-dihydroquinoline-1(2H)-yl)methyl)-[1,1′-biphenyl]-2-carboxylic acid], which “Binding assay (1 μLM)” value is on record?
Its value is “++++”.

For `O=C(NCc1cccnc1)c1ccc2c(c1)OCCN2Cc1ccc(-c2ccccc2C(=O)O)cc1` [Example 89, 4′-((7-((pyridine-3-ylmethyl)carbamoyl)-2H-benzo[b][1,4]oxazine-4(3H)-yl)methyl)-[1,1′-biphenyl]-2-carboxylic acid], which “Binding assay (1 μLM)” value is on record?
Its value is “+”.

With `C[C@H](NC(=O)c1ccc2c(c1)CCCN2Cc1ccc(-c2ccccc2C(=O)O)cc1)c1cccc(C(F)(F)F)c1` [Example 19, (S)-4′-((6-((1-(3-(trifluoromethyl)phenyl)ethyl)carbamoyl)-3,4-dihydroquinoline-1(2H)-yl)methyl)-[1,1′-biphenyl]-2-carboxylic acid] as the molecule, how does the “Binding assay (1 μLM)” value read?
Its value is “+++”.

Which “Binding assay (1 μLM)” value does the source give for `C[C@H](NC(=O)c1ccc2c(c1)CCCN2Cc1ccc(-c2ccccc2C(N)=O)cc1)c1ccc(C(F)(F)F)cc1` [Example 33, (S)-1-((2′-carbamoyl-[1,1′-biphenyl]-4-yl)methyl)-N-(1-(4-(trifluoromethyl)phenyl)ethyl)-1,2,3,4-tetrahydroquinoline-6-carboxamide] here?
Its value is “+++”.

For `C[C@H](NC(=O)c1ccc2c(c1)OCCN2Cc1ccccc1-c1ccc(C(N)=O)cc1)c1ccc([N+](=O)[O-])cc1` [Example 150, (S)-4-((4′-carbamoyl-[1,1′-biphenyl]-2-yl)methyl)-N-(1-(4-nitrophenyl)ethyl)-3,4-dihydro-2H-benzo[b][1,4]oxazine-7-carboxamide], which “Binding assay (1 μLM)” value is on record?
The value was “++”.

How did the “Binding assay (1 μLM)” value turn out when `NC(=O)c1ccccc1-c1ccc(CN2CCCc3cc(C(=O)NCc4ccc(Br)cc4)ccc32)cc1` [Example 53, N-(4-bromobenzyl)-1-((2′-carbamoyl-[1,1′-biphenyl]-4-yl)methyl)-1,2,3,4-tetrahydroquinoline-6-carboxamide] was run?
The value was “+++”.

For `C[C@H](NC(=O)c1ccc2c(c1)OCCN2Cc1ccccc1-c1ccc(C(=O)O)cc1)c1ccc(C#N)cc1` [Example 144, (S)-2′-((7-((1-(4-cyanophenyl)ethyl)carbamoyl)-2H-benzo[b][1,4]oxazine-4(3H)-yl)methyl)-[1,1′-biphenyl]-4-carboxylic acid], which “Binding assay (1 μLM)” value is on record?
The value was “+”.

For `C[C@H](NC(=O)c1ccc2c(c1)CCCN2Cc1ccc(-c2ccccc2C(N)=O)cc1)c1cccc(C(F)(F)F)c1` [Example 47, (S)-1-((2′-carbamoyl-[1,1′-biphenyl]-4-yl)methyl)-N-(1-(3-(trifluoromethyl)phenyl)ethyl)-1,2,3,4-tetrahydroquinoline-6-carboxamide], which “Binding assay (1 μLM)” value is on record?
The value was “+++”.

For `C[C@H](NC(=O)c1ccc2c(c1)CCCN2Cc1ccc(-c2ccccc2C(=O)O)cc1F)c1ccc([N+](=O)[O-])cc1` [Example 109, (S)-3′-fluoro-4′-((6-((1-(4-nitrophenyl)ethyl)carbamoyl)-3,4-dihydroquinoline-1(2H)-yl)methyl)-[1,1′-biphenyl]-2-caboxylic acid], which “Binding assay (1 μLM)” value is on record?
Its value is “+++”.

For `COc1cccc(CNC(=O)c2ccc3c(c2)OCCN3Cc2ccc(-c3ccccc3C(=O)O)cc2)c1` [Example 72, 4′-((7-((3-methoxybenzyl)carbamoyl)-2H-benzo[b][1,4]oxazine-4(3H)-yl)methyl)-[1,1′-biphenyl]-2-carboxylic acid], which “Binding assay (1 μLM)” value is on record?
Its value is “+”.

For `CC[C@H](NC(=O)c1ccc2c(c1)OCCN2Cc1ccc(-c2ccccc2C(=O)O)cc1)c1ccccc1` [Example 62, (S)-4′-((7-((1-phenylpropyl)carbamoyl)-2H-benzo[b][1,4]oxazine-4(3H)-yl)methyl)-[1,1′-biphenyl]-2-carboxylic acid], which “Binding assay (1 μLM)” value is on record?
The value was “+++”.

With `C[C@H](NC(=O)c1ccc2c(c1)CCCN2Cc1cccc(-c2ccccc2C(N)=O)c1)c1ccc2ccccc2c1` [Example 124, (S)-1-((2′-carbamoyl-[1,1′-biphenyl]-3-yl)methyl)-N-(1-(naphthalene-2-yl)ethyl)-1,2,3,4-tetrahydroquinoline-6-carboxamide] as the molecule, how does the “Binding assay (1 μLM)” value read?
The value was “++++”.

For `C[C@H](NC(=O)c1ccc2c(c1)CCCN2Cc1ccc(-c2ccccc2C(N)=O)cc1)c1cccc2ccccc12` [Example 38, (S)-1-((2′-carbamoyl-[1,1′-biphenyl]-4-yl)methyl)-N-(1-(naphthalene-1-yl)ethyl)-1,2,3,4-tetrahydroquinoline-6-carboxamide], which “Binding assay (1 μLM)” value is on record?
The value was “++”.

How did the “Binding assay (1 μLM)” value turn out when `C[C@H](NC(=O)c1ccc2c(c1)CCCN2Cc1ccccc1-c1ccc(C(=O)O)cc1)c1ccccc1` [Example 152, (S)-2′-((6-((1-phenylethyl)carbamoyl)-3,4-dihydroquinoline-1 (2H)-yl)methyl)-[1,1′-biphenyl]-4-carboxylic acid] was run?
Its value is “++”.

With `C[C@H](NC(=O)c1ccc2c(c1)OCCN2Cc1ccc(-c2ccccc2C(=O)O)cc1)c1cccc2ccccc12` [Example 70, (S)-4′-((7-((1-(naphthalene-1-yl)ethyl)carbamoyl)-2H-benzo[b][1,4]oxazine-4(3H)-yl)methyl)-[1,1′-biphenyl]-2-carboxylic acid] as the molecule, how does the “Binding assay (1 μLM)” value read?
Its value is “++”.

`O=C(NC1COc2ccccc2C1)c1ccc2c(c1)CCCN2Cc1ccc(-c2ccccc2C(=O)O)cc1` (stereo not shown) [Example 15, 4′-((6-(cromene-3-ylcarbamoyl)-3,4-dihydroquinoline-1(2H)-yl)methyl)-[1,1′-biphenyl]-2-carboxylic acid] was tested. Which “Binding assay (1 μLM)” value did it give?
Its value is “+”.
